Patent US12649750B2, “Macrocyclic compounds, compositions, and methods of using thereof” (Sionna Therapeutics Inc., priority 2022, dated 2026)

Molecular target: T1, NBD1 (Homo sapiens, UniProt P13569)
T1 construct: Purified recombinant NBD1 was produced using previously described methods; made in house
Test: Aggregation analysis using differential static light scattering (DSLS), thermal stability of NBD1 (ΔTagg)
Assay type: binding
Conditions: ΔTagg versus DMSO control, NBD1 0.2 mg/ml
In short: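 Differential static light scattering read from 25° C. to 70° C. every 0.5° C., ramp 1° C./min, on recombinant NBD1 (0.2 mg/ml; Tris/NaCl/MgCl2 buffer with 2 mM ATP, 2 mM DTT, pH 7.6, 1% glycerol) plus compound. Reported ΔTagg subtracts averaged DMSO Tagg from inflection-point Tagg; categories A ≤5, B >5-10, C >10-25° C.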

T1 sequence (P13569 423-646 limits assumed): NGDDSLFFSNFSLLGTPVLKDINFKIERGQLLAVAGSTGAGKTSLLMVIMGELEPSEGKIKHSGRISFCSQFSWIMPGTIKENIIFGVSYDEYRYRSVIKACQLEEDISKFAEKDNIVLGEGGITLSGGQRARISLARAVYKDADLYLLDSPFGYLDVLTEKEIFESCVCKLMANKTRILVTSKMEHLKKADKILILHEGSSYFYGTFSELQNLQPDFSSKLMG

SMILES | DSLS 3D (100 μM ΔT)
C[C@H](Cc1cccc([C@@]2(C)CCCC(C)(C)CS(=O)(=O)CCc3c(c(F)c(F)c4[nH]ccc34)Oc3ccc(F)c(c3)-c3nc2nn3C)c1)C(=O)NS(=O)(=O)C1CC1 [Compound 328, (2R)—N-Cyclopropylsulfonyl-2-methyl-3-[3-[(6R)-21,22,28-trifluoro-3,6,10,10-tetramethyl-12,12-dioxo-24-oxa-12λ6-thia-3,4,19,30-tetrazapentacyclo[23.3.1.12,5.015,23.016,20]triaconta-1(29),2(30),4,15,17,20,22,25,27-nonaen-6-yl]phenyl]propenamide] | B (a value above 5 °C and less than or equal to 10 °C is marked “B”)
C[C@@H](Cc1cccc([C@@]2(C)CCCC(C)(C)CS(=O)(=O)CCc3c(c(F)cc4[nH]ccc34)S(=O)(=O)c3ccc(F)c(c3)-c3nc2nn3C)c1)C(=O)O [Compound 329, (2S)-3-[3-[(6R)-22,28-Difluoro-3,6,10,10-tetramethyl-12,12,24,24-tetraoxo-12λ6,24λ6-dithia-3,4,19,30-tetrazapentacyclo[23.3.1.12,5.015,23.016,20]triaconta-1(29),2(30),4,15,17,20,22,25,27-nonaen-6-yl]phenyl]-2-methyl-propanoic Acid] | B (a value above 5 °C and less than or equal to 10 °C is marked “B”)
C[C@@H](Cc1cccc([C@@]2(C)CCCC(C)(C)CS(=O)(=O)CCc3c(c(F)cc4[nH]ccc34)S(=O)(=O)c3cccc(c3)-c3coc2n3)c1)C(=O)O [Compound 331, (2S)-3-[3-[(6R)-22-Fluoro-6,10,10-trimethyl-12,12,24,24-tetraoxo-4-oxa-12λ6,24λ6-dithia-19,30-diazapentacyclo[23.3.1.12,5.015,23.016,20]triaconta-1(29),2,5(30),15,17,20,22,25,27-nonaen-6-yl]phenyl]-2-methyl-propanoic acid] | A (an ΔTagg value less than or equal to 5 °C is marked “A”)
CC(=O)OC[C@H](Cc1cccc([C@@]2(C)CCCC(C)(C)CS(=O)(=O)CCc3c(c(F)cc4[nH]ccc34)Sc3ccnc(c3)-c3nc2nn3C)c1)OC(C)=O [Compound 332] | A (an ΔTagg value less than or equal to 5 °C is marked “A”)
Cn1nc2nc1-c1cc(ccn1)Sc1c(F)cc3[nH]ccc3c1CCS(=O)(=O)CC(C)(C)CCC[C@]2(C)c1cccc(C[C@H](O)CO)c1 [Compound 333, (2S)-3-[3-[(6R)-22-Fluoro-3,6,10,10-tetramethyl-12,12-dioxo-12λ6,24-dithia-3,4,19,28,30-pentazapentacyclo[23.3.1.12,5.015,23.016,20]triaconta-1(29),2(30),4,15,17,20,22,25,27-nonaen-6-yl]phenyl]propane-1,2-diol] | B (a value above 5 °C and less than or equal to 10 °C is marked “B”)
Cn1nc2nc1-c1cc(ccn1)S(=O)(=O)c1c(F)cc3[nH]ccc3c1CCS(=O)(=O)CC(C)(C)CCC[C@]2(C)c1cccc(C[C@H](O)CO)c1 [Compound 335, (2S)-3-[3-[(6R)-22-Fluoro-3,6,10,10-tetramethyl-12,12,24,24-tetraoxo-12λ6,24λ6-dithia-3,4,19,28,30-pentazapentacyclo[23.3.1.12,5.015,23.016,20]triaconta-1(29),2(30),4,15,17,20,22,25,27-nonaen-6-yl]phenyl]propane-1,2-diol] | A (an ΔTagg value less than or equal to 5 °C is marked “A”)
CC(=O)OC[C@@H](Cc1cccc([C@@]2(C)CCCC(C)(C)CS(=O)(=O)CCc3c(c(F)cc4[nH]ccc34)Sc3ccnc(c3)-c3nc2nn3C)c1)OC(C)=O [Compound 336A, [(2R)-2-Acetoxy-3-[3-[(6R)-22-fluoro-3,6,10,10-tetramethyl-12,12-dioxo-12λ6,24-dithia-3,4,19,28,30-pentazapentacyclo[23.3.1.12,5.015,23.016,20]triaconta-1(29),2(30),4,15,17,20,22,25,27-nonaen-6-yl]phenyl]propyl]Acetate] | A (an ΔTagg value less than or equal to 5 °C is marked “A”)
Cn1nc2nc1-c1cc(ccn1)Sc1c(F)cc3[nH]ccc3c1CCS(=O)(=O)CC(C)(C)CCC[C@]2(C)c1cccc(C[C@@H](O)CO)c1 [Compound 336B, (2R)-3-[3-[(6R)-22-Fluoro-3,6,10,10-tetramethyl-12,12-dioxo-12λ6,24-dithia-3,4,19,28,30-pentazapentacyclo[23.3.1.12,5.015,23.016,20]triaconta-1(29),2(30),4,15,17,20,22,25,27-nonaen-6-yl]phenyl]propane-1,2-diol] | A (an ΔTagg value less than or equal to 5 °C is marked “A”)
Cn1nc2nc1-c1cc(ccn1)S(=O)(=O)c1c(F)cc3[nH]ccc3c1CCS(=O)(=O)CC(C)(C)CCC[C@]2(C)c1cccc(C[C@@H](O)CO)c1 [Compound 338, (2R)-3-[3-[(6R)-22-Fluoro-3,6,10,10-tetramethyl-12,12,24,24-tetraoxo-12λ6,24λ6-dithia-3,4,19,28,30-pentazapentacyclo[23.3.1.12,5.015,23.016,20]triaconta-1(29),2(30),4,15,17,20,22,25,27-nonaen-6-yl]phenyl]propane-1,2-diol] | A (an ΔTagg value less than or equal to 5 °C is marked “A”)
CC(=O)OC[C@H](Cc1cccc([C@@]2(C)CCCC(C)(C)CS(=O)(=O)CCc3c(c(F)c(F)c4[nH]ccc34)Sc3ccnc(c3)-c3nc2nn3C)c1)OC(C)=O [Compound 339, [(2S)-2-acetoxy-3-[3-[(6R)-21,22-difluoro-3,6,10,10-tetramethyl-12,12-dioxo-12λ6,24-dithia-3,4,19,28,30-pentazapentacyclo[23.3.1.12,5.015,23.016,20]triaconta-1(29),2(30),4,15,17,20,22,25,27-nonaen-6-yl]phenyl]propyl]Acetate] | A (an ΔTagg value less than or equal to 5 °C is marked “A”)
Cn1nc2nc1-c1cc(ccn1)Sc1c(F)c(F)c3[nH]ccc3c1CCS(=O)(=O)CC(C)(C)CCC[C@]2(C)c1cccc(C[C@H](O)CO)c1 [Compound 340, (2S)-3-[3-[(6R)-21,22-Difluoro-3,6,10,10-tetramethyl-12,12-dioxo-12λ6,24-dithia-3,4,19,28,30-pentazapentacyclo[23.3.1.12,5.015,23.016,20]triaconta-1(29),2(30),4,15,17,20,22,25,27-nonaen-6-yl]phenyl]propane-1,2-diol] | B (a value above 5 °C and less than or equal to 10 °C is marked “B”)
Cn1nc2nc1-c1cc(ccn1)S(=O)(=O)c1c(F)c(F)c3[nH]ccc3c1CCS(=O)(=O)CC(C)(C)CCC[C@]2(C)c1cccc(C[C@H](O)CO)c1 [Compound 342] | A (an ΔTagg value less than or equal to 5 °C is marked “A”)
C[C@H](Cc1cccc([C@@]2(C)CCCC(C)(C)CS(=O)(=O)CCc3c(c(F)c(F)c4[nH]cc(F)c34)Oc3ccc(F)c(c3)-c3nc2nn3C)c1)C(=O)O [Compound 345, (2R)-2-Methyl-3-[3-[(6R)-17,21,22,28-tetrafluoro-3,6,10,10-tetramethyl-12,12-dioxo-24-oxa-12λ6-thia-3,4,19,30-tetrazapentacyclo[23.3.1.12,5.015,23.016,20]triaconta-1(29),2(30),4,15,17,20,22,25,27-nonaen-6-yl]phenyl]propanoic Acid] | B (a value above 5 °C and less than or equal to 10 °C is marked “B”)
C[C@@H](Cc1cccc([C@@]2(C)CCCC(C)(C)CS(=O)(=O)CCc3c(c(F)c(F)c4[nH]ccc34)S(=O)(=O)c3ccnc(c3)-c3nc2nn3C)c1)C(=O)O [Compound 346, (2S)-3-[3-[(6R)-21,22-Difluoro-3,6,10,10-tetramethyl-12,12,24,24-tetraoxo-12λ6,24λ6-dithia-3,4,19,28,30-pentazapentacyclo[23.3.1.12,5.015,23.016,20]triaconta-1(29),2(30),4,15,17,20,22,25,27-nonaen-6-yl]phenyl]-2-methyl-propanoic Acid] | B (a value above 5 °C and less than or equal to 10 °C is marked “B”)
C[C@@H](Cc1cccc([C@@]2(C)CCCC(C)(C)CS(=O)(=O)CCc3c(c(F)cc4[nH]ccc34)S(=O)(=O)c3ccnc(c3)-c3nc2nn3C)c1)C(=O)O [Compound 347, (2S)-3-[3-[(6R)-22-Fluoro-3,6,10,10-tetramethyl-12,12,24,24-tetraoxo-12λ6,24λ6-dithia-3,4,19,28,30-pentazapentacyclo[23.3.1.12,5.015,23.016,20]triaconta-1(29),2(30),4,15,17,20,22,25,27-nonaen-6-yl]phenyl]-2-methyl-propanoic Acid] | B (a value above 5 °C and less than or equal to 10 °C is marked “B”)
Cn1nc2nc1-c1cc(ccc1F)S(=O)(=O)c1c(F)cc3[nH]ccc3c1CCS(=O)(=O)CC(C)(C)CCC[C@]2(C)c1cccc(CC(C)(C)C(=O)O)c1 [Compound 348A, 3-[3-[(6R)-22,28-Difluoro-3,6,10,10-tetramethyl-12,12,24,24-tetraoxo-12λ6,24λ6-dithia-3,4,19,30-tetrazapentacyclo[23.3.1.12,5.015,23.016,20]triaconta-1(29),2(30),4,15,17,20,22,25,27-nonaen-6-yl]phenyl]-2,2-dimethyl-propanoic Acid] | A (an ΔTagg value less than or equal to 5 °C is marked “A”)
Cn1nc2nc1-c1cc(ccc1F)S(=O)(=O)c1c(F)cc3[nH]cc(Cl)c3c1CCS(=O)(=O)CC(C)(C)CCC[C@]2(C)c1cccc(CC(C)(C)C(=O)O)c1 [Compound 348B, 3-[3-[(6R)-17-Chloro-22,28-difluoro-3,6,10,10-tetramethyl-12,12,24,24-tetraoxo-12λ6,24λ6-dithia-3,4,19,30-tetrazapentacyclo[23.3.1.12,5.015,23.016,20]triaconta-1(29),2(30),4,15,17,20,22,25,27-nonaen-6-yl]phenyl]-2,2-dimethyl-propanoic Acid] | A (an ΔTagg value less than or equal to 5 °C is marked “A”)
